Results as given in US3940386A, “Substituted cinnamoyl-piperazine-pyridyl compound” (Cermol S.A., priority 1973, dated 1976).
Counter-ions that a name gives are not always drawn.

Tests used:
[1] = Set of methods and tests of the activity of the products (vasodilatatory, spasmolytic, antihistaminic, cholinolytic, sedative, depressant, neurotoxic)
From the text: The set of methods and tests effected enabled us to appreciate the activity of the products according to the invention. It clearly follows therefrom that the products wherein: […]

[2] = Toxicity (mice), I.G. (Table III); format: in vivo; conditions: mouse, in vivo, po
From the text: (§1) The products were used in the form of the trihydrochloride, except the product under the letter "b" which was used in the form of the dihydrochloride.

mice [3] = assay: Toxicity (mice), I.G. (Table III); format: in vivo
From the text: as §1

cerebral circulation = assay: Cerebral circulation: PO2 of the venous cerebral blood (sinus sagittalis) in cats anaesthetized with Nembutal; format: in vivo; conditions: intravenous perfusion
Experimental: In the course of a series of experiments on cats anaesthetized with Nembutal, the cynetics of PO2 of the venous cerebral blood were measured (from the sinus sagittalis) during an intravenous perfusion of this product.

[4] = Acute toxicity, oral, albino rats (Table II); format: in vivo; conditions: rat, in vivo, aqueous solution
Experimental: (§2) Tests were performed on mice and albino rats, the active compound being administered orally in the form of an aqueous solution.

albino rats = assay: Acute toxicity, oral, albino rats (Table II); format: in vivo; conditions: aqueous solution
Experimental: as §2

[5] = Acute toxicity, oral, mice (Table II); format: in vivo; conditions: mouse, in vivo, aqueous solution
Experimental: as §2

mice [6] = assay: Acute toxicity, oral, mice (Table II); format: in vivo; conditions: aqueous solution
Experimental: as §2

[7] = Acute toxicity on mice, orally and intraperitoneally (Table I); format: in vivo; conditions: mouse, in vivo, suspended in gum syrup or labrafil
Experimental: (§3) Tests were performed on mice, orally (P.O.) and intraperitoneally (I.P.), the active compounds being suspended in gum syrup or labrafil.

mice [8] = assay: as above; format: in vivo; conditions: for LD0: suspended in gum syrup or labrafil
Experimental: as §3

Structure (SMILES)	antihistaminic activity [1]	depressant properties [1]	neurotoxic properties [1]	spasmolytic activity [1]	vasodilatatory activity [1]	LD50 [2]	LD0 (mice [3]; mouse, in vivo)	further results
Fc1ccc(C(c2ccccn2)N2CCN(CC=Cc3ccccc3)CC2)cc1 (stereo not drawn) [1(2'-pyridyl-4"-fluorophenyl)-methyl-4-cinnamyl piperazine]	well-defined	do not show	do not show	well-defined	well-defined	400 mg/kg	300 mg/kg	
Clc1ccc(C(c2ccccn2)N2CCN(CC=Cc3ccccc3)CC2)c(Cl)c1 (stereo not drawn) [1-(2'-pyridyl-2",4"-dichlorophenyl)-methyl-4-cinnamyl piperazine trihydrochloride]	well-defined	do not show	do not show	well-defined	well-defined	600 mg/kg	400 mg/kg	
Clc1ccc(C(c2ccccn2)N2CCN(CC=Cc3ccccc3)CC2)cc1 (stereo not drawn) [1-(2'-pyridyl-4"-chlorophenyl)-methyl-4-cinnamyl piperazine]	well-defined	do not show	do not show	well-defined	well-defined	1180 mg/kg	400 mg/kg	activity with respect to cerebral circulation (cerebral circulation): important activity
CC(c1ccc(Cl)cc1)(c1ccccn1)N1CCN(CC=Cc2ccccc2)CC1 (stereo not drawn) [1-(2'-pyridyl-4"-chlorophenylmethyl)-methyl-4-cinnamyl piperazine]								sedative activity [1]: presents a sedative activity; LD50 ([2]; mice, I.G.): 500 mg/kg; LD0 (mice [3]; mice, I.G.): 400 mg/kg
C(=Cc1ccccc1)CN1CCN(C(c2ccccc2)c2ccccn2)CC1 (stereo not drawn) [1-(2'-pyridylphenyl)-methyl-4-cinnamyl piperazine]								LD50 [4]: 1200 mg/kg; LD0 (albino rats): 200 mg/kg; LD50 [5]: 295 mg/kg; LD0 (mice [6]): 175 mg/kg
C(=Cc1ccccc1)CN1CCN(C(c2ccccc2)C2CC2)CC1 (stereo not drawn) [--CH2 --, 1-(cyclopropylphenyl)-methyl-4-cinnamyl piperazine]								LD50 ([7]; po, P.O.): 570 mg/kg; LD0 (mice [8]; P.O.): ~300 mg/kg
O=C(C=Cc1ccccc1)N1CCN(C(c2ccccc2)C2CC2)CC1 (stereo not drawn) [C = O, 1-(cyclopropylphenyl)-methyl-4-cinnamoyl piperazine]								LD50 ([7]; ip, I.P.): 1480 mg/kg; LD50 ([7]; po, P.O.): > 4000 mg/kg; LD0 (mice [8]; I.P.): > 400 mg/kg; LD0 (mice [8]; P.O.): > 1000 mg/kg; toxicity (mice [8]; in words): very low toxicity
